Results published in patent US20110098360A1, “ADAMANTANE DERIVATIVE FOR INHIBITING TOXICITY OF AMYLOID OLIGOMER” (NANODIAMOND, INC., priority 2008, published 2011).

Experiments:
[1] = tested on: LTP in hippocampal CA1 region (Schaffer collateral pathway); assay: fEPSP / LTP extracellular recording in hippocampal CA1 transverse slice; design: species or system ICR mouse; conditions: 1 hour after HFS
Description: Field excitatory postsynaptic potential (fEPSP) was measured in the CA1 region (Schaffer collateral pathway) of the hippocampus of an ICR mouse using the extracellular recording technique.
Hippocampal slice for fEPSP experiment was obtained from young (4-7 weeks old) male ICR mice. The mice were anesthetized with isoflurane prior to decapitation. After quickly taking out the brain of the mouse from the skull, the brain was cooled with ice and then put in a highly concentrated sucrose solution (sucrose 201 mM, KCl 3 mM, NaH2PO4 1.25 mM, MgCl2 3 mM, CaCl2 1 mM, NaHCO3 26 mM and D-glucose 10 mM) of pH 7.3 with oxygen (95% O2 and 5% CO2) supplied thereto. After isolating the hippocampus from the brain, transverse slices were obtained by cutting with a vibratome (Ted Pella, Redding, Calif., USA) in the high-concentration sucrose solution. Before extracellular recording, the transverse slice was incubated at 30° C. in a normal artificial cerebrospinal fluid (nACSF; NaCl 126 mM, KCl 3 mM, NaH2PO4 1.25 mM, MgSO4 1.3 mM, MgSO4 1.3 mM, CaCl2 2.4 mM, NaHCO3 26 mM and D-glucose 10 mM) of […] of pH 7.3 with oxygen supplied thereto. […]
In order to induce long-term potentiation (LTP), high-frequency stimulation (HFS, 2 trains, 100 Hz, 1s duration, 15 intervals) was applied with the same strength as that of the baseline experiment. Average LTP was calculated by averaging 20 fEPSP slopes at 55 to 60 minutes after the application of the high-frequency stimulation.
Extracellular field potential was recorded using a microelectrode AC amplifier model 1800 (A-M Systems, Inc., USA). The response signal was low-pass filtered at 5 kHz, digital sampled at 10 kHz using a Digidata 1322 A/D converter, and then analyzed using pCLAMP 9.0 software (Axon Instruments). […] The difference between two means was analyzed by an unpaired Student's t-test. p<0.05 was evaluated as significant. […]

H19-7 cells = assay: FLIM of single live H19-7 cell in the presence of (Aβ)12 and adamantane derivatives; format: cell-based, rat; conditions: for aspect ratio of single live cell: H19-7 cell treated with beta amyloid oligomer, FIG. 8; for apoptosis / toxicity of (Aβ)12 on single cell (fluorescence images): H19-7 cell, 33 nM (Aβ)12 plus adamantane derivative, FIG. 7
Description: (Aβ)12 was prepared according to a known method. Specifically, synthetic Aβ1-42 peptide (Biopeptide Co.) was suspended at room temperature in 100% 1, 1, 1, 3,3,3-hexafluoro-2-propanol (HFIP). After incubation for 30 minutes, HFIP was removed by evaporating under mild nitrogen flow. Then, Aβ1-42 was suspended again in dimethyl sulfoxide (DMSO) at a concentration of 5 mM and then diluted with mM 2-[4-(2-hydroxyethyl)-1-piperazinyl]ethanesulfonic acid (HEPES; pH 7.4) to a final concentration of 110 μM. The resulting solution was incubated at 37° C. for 24 hours while stirring at 500 rpm using a micro stir bar. […] For cell culturing experiment, a 2 μM solution of (Aβ)12 was diluted using serum-free Dulbecco's modified Eagles medium (DMEM) to a final concentration of 33 nM, which corresponds to a monomer concentration of about 400 nM.
Rat hippocampal H19-7 cells were stored in DMEM containing 10% (v/v) fetal bovine serum (FBS). The cells were cultured to 80% colonies on a culture dish at low concentration in a 35° C. incubator of humidified 5% CO2 atmosphere. For fluorescence lifetime imaging microscopy (FLIM), the cells were cultured for a day after being transferred to a dish equipped with a poly-D-lysine-coated cover glass (MatTek Corporation). Before FLIM measurement, the cells were stained with 3 μM Cell Tracker Green CMFDA (Molecular Probes) solution and then incubated for 30 minutes in serum-free medium.
FLIM is a powerful tool for producing clear images of live cells. FLIM images were obtained at 40 MHz at an excitation wavelength of 467 nm (Picoquant PDL 800-B), using a band pass filter for 500-580 nm and a long pass emission filter for 473 nm (Semlock). A Nikon confocal microscope equipped with an oil-impregnated objective lens (NA 1.3) was used as a platform of an AFM scanner (PSIA). In FLIM measurement, time-correlated single photon counting is very important. […] The measurement was carried out after placing live cells on a poly-d-lysine-coated cover glass bottomed dish (MatTek Corporation) coated with and then filling serum-free medium diluted with PBS buffer.
For FLIM imaging, […] hippocampal cells (H19-7) were labeled with Cell Tracker Green having a relatively small pKa value.
In general, the degree of degeneration of neurons can be qualitatively analyzed based on the change in the aspect ratio of a single cell. The progression of neuronal death could be evaluated from the decrease in the aspect ratio.

(Aβ)12 = biological target: T1, (Aβ)12 (Homo sapiens, UniProt P05067); assay: CD spectrum of (Aβ)12 after treatment with adamantane derivatives; conditions: for change in the CD spectrum of (Aβ)12: (Aβ)12 treated with adamantane derivative, 37° C., 190-250 nm; for effect of deforming the β-turn structure (rank order): among the adamantane derivatives tested
T1 construct: purchased Biopeptide Co; host or cells: chemical synthesis; oligomerised in house (HFIP, DMSO, HEPES pH 7.4, 37 °C, 24 h)
Description: (Aβ)12 was prepared according to a known method. Specifically, synthetic Aβ1-42 peptide (Biopeptide Co.) was suspended at room temperature in 100% 1, 1, 1, 3,3,3-hexafluoro-2-propanol (HFIP). After incubation for 30 minutes, HFIP was removed by evaporating under mild nitrogen flow. Then, Aβ1-42 was suspended again in dimethyl sulfoxide (DMSO) at a concentration of 5 mM and then diluted with mM 2-[4-(2-hydroxyethyl)-1-piperazinyl]ethanesulfonic acid (HEPES; pH 7.4) to a final concentration of 110 μM. The resulting solution was incubated at 37° C. for 24 hours while stirring at 500 rpm using a micro stir bar. After centrifugation at 4000 g for 30 minutes, thus obtained 56-kDa Aβ1-42 dodecamer, i.e. (Aβ)12, was concentrated (50 kDa and 100 kDa cut-off). The presence of (Aβ)12 in the concentrated sample was identified by sodium dodecyl sulfate polyacrylamide gel electrophoresis (SDS-PAGE). Its spherical structure was confirmed by atomic force microscopy. For cell culturing experiment, a 2 μM solution of (Aβ)12 was diluted using serum-free Dulbecco's modified Eagles medium (DMEM) to a final concentration of 33 nM, which corresponds to a monomer concentration of about 400 nM.
Circular dichroism (CD) spectra are useful in determining the secondary structure of proteins in solution. CD spectrum was obtained using a Jasco-810 instrument at high-sensitivity mode (5 mdeg), with a time constant of 4 s, at a scan rate of 100 nm/min, for 30 cycles. The spectrum was obtained at 37° C. in the wavelength region from 190 nm to 250 nm.
Referring to FIG. 5, when the amyloid oligomer was treated with the adamantane derivatives, the intensity of the positive band of the oligomer at 195 nm decreased and the positive band at 205 nm shifted toward longer wavelength. This means that the adamantane derivatives induce deformation of the oligomer structure by changing the configuration of the β-sheets. […] Although a detailed structure of the deformed oligomer is not clear, the decrease of intensity at 205 nm is due to the β-turn structure.

Aβ1-40 = assay: In vivo test in Tg-APP/PS1 mice, ELISA of insoluble Aβ1-40; design: species or system Tg-APPswe/PS1dE9 mouse; conditions: single ICV injection of TAMA (1.274 μg), 24 hours, prefrontal cortex, 7.5-month-old mice
Description: (§1) Transgenic APPswe/PS1dE9 (Tg-APP/PS1) mouse overexpressing human APP and PS1 mutations was crossbred with hybrid mouse of C57BL6 and C3H until the same genetic background as the original Tg-APP/PS1 mouse was attained. The mice were accommodated in a cage with temperature and humidity controlled and 12 hour night/day cycles (lighting began at 7 a.m.), 1 to 3 mice per cage. The mice were freely given water and feed. All the mice were handled according to the Guideline for Animal Breeding and Management of the College of Pharmacy, Ewha Womans University. […]
(§2) Quantification of Aβ by ELISA was performed according to the literature of Lee et al. (Lee et al., Neurobiol. Dis. 22, 10-24). […]
(§3) Aβ1-40 peptide and Aβ1-42 peptide concentrations were determined using […] Human β Amyloid Aβ1-40 and Aβ1-42 colorimetric sandwich ELISA kits (Signal Select™, BioSource, Camarillo, Calif., USA).
(§4) A and B respectively show the quantity of insoluble Aβ1-40 (A) and insoluble Aβ1-42 (B) in the prefrontal cortex of a 7.5-month-old Tg-APP/PS1 mouse to which TAMA was administered represented as % mol with respect to when only the vehicle was administered. […]

Aβ1-42 = assay: In vivo test in Tg-APP/PS1 mice, ELISA of insoluble Aβ1-42; design: species or system Tg-APPswe/PS1dE9 mouse; conditions: single ICV injection of TAMA (1.274 μg), 24 hours, prefrontal cortex, 7.5-month-old mice
Description: as §1, §2, §3, §4

T1 sequence (P05067 672-713 limits assumed): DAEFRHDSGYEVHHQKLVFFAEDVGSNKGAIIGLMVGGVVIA

Aβ oligomer: 56-kDa Aβ1-42 dodecamer prepared from synthetic Aβ1-42 peptide; neurotoxic oligomer used as challenge
fEPSP slope increase with respect to the baseline ([1]; 30 nM Aβ oligomer solution only, N=9): 124.7±5.743%
aspect ratio of single live cell (H19-7 cells; after 120 minutes): 1.0

CC12CC3CC(C)(C1)CC(N)(C3)C2 [memantine]
change in the CD spectrum of (Aβ)12 ((Aβ)12): almost identical to that of the typical β-turn peptide
effect of deforming the β-turn structure (rank order) ((Aβ)12): TAMA>amantadine>memantine
aspect ratio of single live cell (H19-7 cells; in 60 minutes): 1.0
apoptosis / toxicity of (Aβ)12 on single cell (fluorescence images) (H19-7 cells): comparable to or faster than in the presence of (Aβ)12 only

NC12CC3CC(CC(C3)C1)C2 [amantadine, Amantadine]
change in the CD spectrum of (Aβ)12 ((Aβ)12): broadening of the positive band from 205 nm to 215 nm
effect of deforming the β-turn structure (rank order) ((Aβ)12): TAMA>amantadine>memantine

NCC12CC3(CN)CC(CN)(C1)CC(CN)(C2)C3 [TAMA, 1,3,5,7-Tetrakis(aminomethyl)adamantane]
fEPSP slope increase with respect to the baseline ([1]; 30 nM Aβ oligomer and 200 nM TAMA, N=9): 170.4±13.72%
fEPSP slope increase with respect to the baseline ([1]; 200 nM TAMA without Aβ oligomer, N=4): 183.2±11.30%
quantity of insoluble Aβ1-40 relative to vehicle (control) group (Aβ1-40): 69.7%
change in the CD spectrum of (Aβ)12 ((Aβ)12): negative band near 195 nm
effect of deforming the β-turn structure (rank order) ((Aβ)12): TAMA>amantadine>memantine
quantity of insoluble Aβ1-42 relative to vehicle (control) group (Aβ1-42): 87.8%
aspect ratio of single live cell (H19-7 cells; after 120 minutes): no decrease in the aspect ratio
apoptosis / toxicity of (Aβ)12 on single cell (fluorescence images) (H19-7 cells): not affected by the toxicity of the oligomer at all
